# ChEMBL document CHEMBL1156102, “Identification of iminooxothiazolidines as secreted frizzled related protein-1 inhibitors” (Bioorg Med Chem Lett, 2009)
# Calls of active or inactive are those of the source. The rule behind the calls is not given here.
# Key:
# [1] = molecular target: T1, Secreted frizzled-related protein 1 (Homo sapiens) (UniProt Q8N474); test: Inhibition of human SFRP1 transfected in human U20S cells at 15 uM by TCF-luciferase reporter gene assay relative to control; format: cell-based; conditions: U2OS
# T1 sequence (whole entry): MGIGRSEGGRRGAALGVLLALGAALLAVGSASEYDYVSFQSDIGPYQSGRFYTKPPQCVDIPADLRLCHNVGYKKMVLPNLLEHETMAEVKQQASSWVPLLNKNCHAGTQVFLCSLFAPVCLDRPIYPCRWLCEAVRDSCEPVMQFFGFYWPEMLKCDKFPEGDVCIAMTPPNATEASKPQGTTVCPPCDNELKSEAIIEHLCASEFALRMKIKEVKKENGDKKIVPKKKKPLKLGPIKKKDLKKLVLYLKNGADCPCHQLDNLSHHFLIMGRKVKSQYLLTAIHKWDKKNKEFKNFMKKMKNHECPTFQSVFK
# [2] = molecular target: T1, Secreted frizzled-related protein 1 (Homo sapiens); test: Inhibition of human SFRP1 transfected in human U20S cells at 30 uM by TCF-luciferase reporter gene assay relative to control; format: cell-based; conditions: U2OS
# [3] = molecular target: T2, Secreted frizzled-related protein 1 (Homo sapiens, UniProt Q8N474); test: Binding affinity to human SFRP1 by fluorescence spectroscopy
# T2 sequence (Q8N474 whole entry): T1 sequence (whole entry)
# [4] = molecular target: Secreted frizzled-related protein 1 (Homo sapiens) (UniProt Q8N474); test: Inhibition of human SFRP1
# [5] = molecular target: T2, Secreted frizzled-related protein 1; test: Inhibition of human SFRP1 transfected in human U20S cells by TCF-luciferase reporter gene assay; format: cell-based, U2OS
# [6] = molecular target: Proto-oncogene Wnt-3 (Homo sapiens) (UniProt P56703); test: Binding affinity to Wnt3
# Mus musculus [7] = organism: Mus musculus; test: Ex vivo osteogenic activity in mouse calvaria assessed in increase in total bone area at 15 uM; format: functional
# Mus musculus [8] = organism: Mus musculus; test: Ex vivo osteogenic activity in mouse calvaria assessed in increase in osteoblasts number at 15 uM; format: functional
# Chain of Proto-oncogene Wnt-3 (Homo sapiens) (P56703 whole entry): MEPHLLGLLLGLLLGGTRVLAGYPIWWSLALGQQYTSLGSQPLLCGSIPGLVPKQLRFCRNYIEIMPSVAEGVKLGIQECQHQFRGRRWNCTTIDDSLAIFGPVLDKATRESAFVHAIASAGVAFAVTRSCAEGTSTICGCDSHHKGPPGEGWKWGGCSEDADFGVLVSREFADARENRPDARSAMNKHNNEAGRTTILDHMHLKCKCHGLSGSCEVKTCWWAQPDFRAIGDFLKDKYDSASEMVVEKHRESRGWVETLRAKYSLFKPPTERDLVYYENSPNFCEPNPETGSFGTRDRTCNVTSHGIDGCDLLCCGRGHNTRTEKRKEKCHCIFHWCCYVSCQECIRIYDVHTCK
SMILES,fold change (FC) [1],also measured
CC/N=C1\NC(=O)C(CC(=O)Nc2sc(C)c(C)c2C(=O)OCC)S1 (stereo unspecified),1.2,–
CCOC(=O)c1c(NC(=O)CC2S/C(=N/C)N(C)C2=O)sc(C)c1C (stereo unspecified),1.2,–
CCOC(=O)c1cccc(NC(=O)CC2SC(=N)NC2=O)c1 (stereo unspecified),–,fold change (FC) [2]: 1.5
N=C1NC(=O)C(CC(=O)NCc2cccc(Cl)c2)S1 (stereo unspecified),–,fold change (FC) [2]: 1
CCOC(=O)c1c(NC(=O)CC2SC(=N)NC2=O)sc(Br)c1CNc1ccccc1 (stereo unspecified),2.5,–
N=C1NC(=O)C(CC(=O)Nc2ccccc2)S1 (stereo unspecified),–,fold change (FC) [2]: 1.1
CCOC(=O)c1ccccc1NC(=O)CC1SC(=N)NC1=O (stereo unspecified),1.1,–
COC(=O)c1cc(-c2ccccc2)sc1NC(=O)CC1SC(=N)NC1=O (stereo unspecified),0.9,–
N=C1NC(=O)C(CC(=O)Nc2cccc(Cl)c2Cl)S1 (stereo unspecified),–,fold change (FC) [2]: 1
COC(=O)c1ccsc1NC(=O)CC1SC(=N)NC1=O (stereo unspecified),1.2,–
N=C1NC(=O)C(CC(=O)Nc2cccc(Cl)c2)S1 (stereo unspecified),–,fold change (FC) [2]: 1.7
CCOC(=O)c1c(NC(=O)CC2S/C(=N/C)NC2=O)sc(C)c1C (stereo unspecified),1.2,–

# Now from value to compound, other results behind:
fold change (FC) [1],SMILES,also measured
0.8,CCOC(=O)c1c(NC(=O)CC2SC(=N)NC2=O)sc(-c2ccccc2)c1C (stereo unspecified),–
1.9,COC(=O)c1c(NC(=O)CC2SC(=N)NC2=O)sc(C)c1C (stereo unspecified),Kd [3]: 0.72 µM; Activity [4]: Active; EC50 [5]: 7.2 µM; Activity [6]: Active
1.7,CCOC(=O)c1cc(CC)sc1NC(=O)CC1SC(=N)NC1=O (stereo unspecified),–
1,CCOC(=O)c1c(NC(=O)CC2SC(=O)NC2=O)sc2c1CCCC2 (stereo unspecified),–
1.8,CCOC(=O)c1c(NC(=O)CC2SC(=N)NC2=O)sc(C)c1-c1ccccc1 (stereo unspecified),–
2.3,CCOC(=O)c1c(NC(=O)CC2SC(=N)NC2=O)sc(C)c1C (stereo unspecified),Activity (Mus musculus [7]): Active; Activity (Mus musculus [8]): Active
1.9,CCOC(=O)c1c(NC(=O)CC2SC(=N)NC2=O)sc2c1CCCCC2 (stereo unspecified),–
1.1,N=C1NC(=O)C(CC(=O)Nc2sc3c(c2C(N)=O)CCCC3)S1 (stereo unspecified),–
1.6,CCOC(=O)c1c(NC(=O)CC2SC(=N)NC2=O)sc2c1CCCC2 (stereo unspecified),–
2.6,CCOC(=O)c1c(NC(=O)CC2SC(=N)NC2=O)sc(Br)c1C (stereo unspecified),–
1.2,N#Cc1c(NC(=O)CC2SC(=N)NC2=O)sc2c1CCCC2 (stereo unspecified),–
2,CCOC(=O)c1c(C)csc1NC(=O)CC1SC(=N)NC1=O (stereo unspecified),–
1.5,CCOC(=O)c1c(NC(=O)CC2SC(=N)NC2=O)sc2c1CCC2 (stereo unspecified),–
